Assay results from PubChem BioAssay (NCI).
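48-hour exposure; five concentrations; linearly interpolated endpoints. GI50 is the concentration that inhibits growth by half. TGI is the concentration that stops growth completely.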

Tested on: MDA-MB-468 breast
Test: NCI-60 cell line screen, 48 h

## COC(=O)[C@]12CC[C@@H](C)[C@H](C)[C@@H]1C1=CC[C@@H]3[C@@]4(C)C(C=O)=C[C@@](C)(COC(=O)/C=C/c5ccccc5)[C@@H]4[C@H](O)C[C@@]3(C)[C@]1(C)CC2
  GI50: 2590 nM
  TGI: 7490 nM

## CCC(=O)Nc1cc(Nc2cc(NC3CC3)n3ncc(C#N)c3n2)ccc1C
  GI50: 1160 nM
  TGI: 4060 nM

## Cc1nccc2c3ccc(OCc4cn(-c5ccc(Cl)cc5)nn4)cc3n(CC(C)C)c12
  GI50: 968 nM
  TGI: 12000 nM

## Cc1ccc(S(=O)(=O)Nc2ccc(-c3cc(-c4cccc(F)c4)c(C#N)c(N)n3)cc2)cc1
  GI50: 1720 nM
  TGI: 3760 nM

## COc1cccc(Nc2nccc(-c3cnn4ncccc34)n2)c1
  GI50: 48.4 nM
  TGI: 106 nM

## CN(C)CCOC(=O)Nc1nc2ccc(Sc3ccccc3)cc2[nH]1
  GI50: 2020 nM
  TGI: 7730 nM

## C[C@@H](Oc1cc(-n2cnc3ccc(OC[C@@H](O)CO)cc32)sc1C(N)=O)c1ccccc1Cl
  GI50: 15.9 nM
  TGI: 6070 nM

## Nc1c(F)cc(-c2nc3cc(F)ccc3[se]2)cc1Br
  GI50: 26 nM
  TGI: 93.3 nM

## CC1=C([Se]CC(OC(=O)[C@@H](CO)NC(=O)OC(C)(C)C)C(=O)NCCCCCC(=O)OCc2ccccc2)C(=O)c2ccccc2C1=O (stereo partly drawn)
  GI50: 1490 nM
  TGI: 3160 nM

## CN1CCN(Cc2cc(NC(=O)c3cccc(C#Cc4cccc5[nH]nc(N)c45)c3)cc(C(F)(F)F)c2)CC1
  GI50: 1750 nM
  TGI: 3350 nM

## N#CC1C(=O)NC(c2ccccc2[N+](=O)[O-])c2sc3c(F)cccc3c21 (stereo not drawn)
  GI50: 108 nM
  TGI: 283 nM

## COc1ccc(/C=C2\c3cc(OC)c(OC)c(OC)c3CC[C@@H]2O)cc1F
  GI50: 1160 nM
  TGI: > 100000 nM

## Cc1ccc(S(=O)(=O)N2CCc3ccc(O)c4c3C2Cc2ccc3c(c2-4)OCO3)cc1 (stereo not drawn)
  GI50: 743 nM
  TGI: 7490 nM

## CN(C)CCNC(=O)NC[C@H]1CC[C@@H]2[C@H](O1)c1cc(C(F)(F)F)ccc1N[C@H]2c1ccccc1
  GI50: 34.9 nM
  TGI: 312 nM

## COc1ccc(OC)c(/C=C/c2nc(SCc3ccccc3)n(-c3ccc(Cl)cc3)n2)c1
  GI50: 5120 nM
  TGI: 84500 nM

## CN1CCN(Cc2ccc(NC(=O)c3cncc(C#Cc4cnc(N)c5cnccc45)c3)cc2C(F)(F)F)CC1
  GI50: 285 nM
  TGI: 4520 nM

## CN(C)c1ccc(N=C2C=CC(=O)c3ccccc32)cc1
  GI50: 2150 nM
  TGI: 6050 nM

## C#Cc1cccc(NC(=O)c2ccc(NC(=O)CCl)cc2)c1
  GI50: 18800 nM
  TGI: 76900 nM

## COC1=CC(=O)c2nc(Cl)ccc2C1=O
  GI50: 1360 nM
  TGI: 2670 nM

## COc1ccc(N(C)c2nc(Cl)nc3cnn(C)c23)cc1
  GI50: < 10 nM
  TGI: > 100000 nM

## COCc1c(-c2ccc(NC(=O)Nc3cc(C(F)(F)F)ccc3F)c(F)c2)c2c(N)ncnn2c1CN1CCOCC1
  GI50: 1620 nM
  TGI: 5680 nM

## C=CCc1c(O)c(C(=O)/C=C/c2ccccc2)c(OC)c2ccoc12
  GI50: 3070 nM
  TGI: 11400 nM

## Cc1cc(Cl)cc(Cc2cc(Cl)cc(C)c2O)c1O
  GI50: 2220 nM
  TGI: 6920 nM

## FC(F)(F)c1cc(Nc2ccc3cc(OCCCN4CCOCC4)ccc3n2)ccc1Cl
  GI50: 1910 nM
  TGI: 6750 nM
